Data taken from paper PMC6155273, “Antiprotozoal Activity of Triazole Derivatives of Dehydroabietic Acid and Oleanolic Acid” (Molecules : A Journal of Synthetic Chemistry and Natural …, 2017).
In brackets after ≈: the same amount, converted by molar mass.

Tested on: L. braziliensis promastigotes
Assay: Leishmanicidal activity on L. braziliensis promastigotes (resazurin)
Assay type: cell-based, Leishmania braziliensis
Conditions: Leishmania braziliensis, 48 h, read-out: Leishmanicidal Activity on Promastigotes, L. braziliensis, IC50
Protocol: (§1) Culture of L. braziliensis (MHOM/BR/75/M2904), and L. infantum (MHOM/FR/91/LEM2259V) was obtained from the Facultad de Farmacia (Universidad Complutense de, Madrid, Spain). The maintenance of the strains, the form of cultivation, and the isolation of shape promastigota were performed following the procedures described by Roldos et al.. The promastigotes were grown at 22 °C in Schneider’s Drosophila medium supplemented with 20% FBS. The assay was performed using a modification of a previous method. Promastigotes (2 × 10^6 parasites/well) were cultured in 96-well plastic plates. Compounds were dissolved in dimethylsulfoxide (DMSO). Different dilutions of the compounds with a final volume up to 200 µL were added. After 48 h at 26 °C, 20 µL of a 2 mM resazurin solution was added, and the oxidation-reduction was quantified at 570 and 600 nm. The solution of resazurin was prepared at 2.5 mM in phosphate buffered solution (PBS), pH 7.4, and filtered through 0.22 µm prior to use. All tests were carried out in triplicate. Resazurin sodium salt was obtained from Sigma-Aldrich (St. Louis, MO, USA) and stored at 4 °C protected from light. The efficacy of each compound was estimated by calculating the IC50 values.

| Compound | IC50 [µg/mL] |
| --- | --- |
| CC(C)c1ccc2c(c1)CCC1[C@](C)(COC(=O)CCCCc3cn(-c4ccccc4)nn3)CCC[C@]21C (stereo partly shown) [Compound 6] | > 256 |
| COC(=O)[C@]12CCC(C)(C)C[C@H]1C1=CCC3[C@@]4(C)CC[C@H](OC(=O)CCc5cn(CSc6ccccc6)nn5)C(C)(C)C4CC[C@@]3(C)[C@]1(C)CC2 (stereo partly shown) [Compound 30] | > 256 |
| CC(C)c1ccc2c(c1)CCC1[C@](C)(COC(=O)CCCCc3cn(CSc4ccccc4)nn3)CCC[C@]21C (stereo partly shown) [Compound 10] | > 256 |
| CC1(C)CC[C@]2(C(=O)O)CC[C@]3(C)C(=CCC4[C@@]5(C)CC[C@H](OC(=O)CCc6cn(-c7ccccc7)nn6)C(C)(C)C5CC[C@]43C)[C@@H]2C1 (stereo partly shown) [Compound 21] | > 256 |
| CC(C)c1ccc2c(c1)CCC1[C@](C)(C(=O)OCc3cn(CSc4ccccc4)nn3)CCC[C@]21C (stereo partly shown) [Compound 3] | > 256 |
| COC(=O)[C@]12CCC(C)(C)C[C@H]1C1=CCC3[C@@]4(C)CC[C@H](OC(=O)CCc5cn(Cc6ccc(Cl)cc6)nn5)C(C)(C)C4CC[C@@]3(C)[C@]1(C)CC2 (stereo partly shown) [Compound 26] | > 256 |

Same assay, conditions: Leishmania braziliensis; promastigotes, 48 h; read-out: Leishmanicidal Activity on Promastigotes, L. braziliensis, IC50

| Compound | IC50 [µg/mL] |
| --- | --- |
| CC(C)c1ccc2c(c1)CCC1[C@](C)(COC(=O)CCc3cn(Cc4cccc(Cl)c4)nn3)CCC[C@]21C (stereo partly shown) [Compound 13] | 242 (≈ 453 µM) |
| Cc1ccc(S(=O)(=O)n2cc(CCC(=O)O[C@H]3CC[C@@]4(C)C(CC[C@]5(C)C4CC=C4[C@@H]6CC(C)(C)CC[C@]6(C(=O)O)CC[C@]45C)C3(C)C)nn2)cc1 (stereo partly shown) [Compound 27] | > 256 |
| Cc1ccc(S(=O)(=O)n2cc(CCC(=O)OC[C@]3(C)CCC[C@]4(C)c5ccc(C(C)C)cc5CCC34)nn2)cc1 (stereo partly shown) [Compound 15] | 89 (≈ 158 µM) |

Tested on: L. infantum promastigotes
Assay: Leishmanicidal activity on L. infantum promastigotes (resazurin)
Assay type: cell-based, Leishmania infantum
Conditions: Leishmania infantum, 48 h, read-out: Leishmanicidal Activity on Promastigotes, L. infantum, IC50
Protocol: as §1

| Compound | IC50 [µg/mL] |
| --- | --- |
| CC(C)c1ccc2c(c1)CCC1[C@](C)(COC(=O)CCCCc3cn(-c4ccccc4)nn3)CCC[C@]21C (stereo partly shown) [Compound 6] | > 256 |
| CC(C)c1ccc2c(c1)CCC1[C@](C)(COC(=O)CCc3cn(Cc4cccc(Cl)c4)nn3)CCC[C@]21C (stereo partly shown) [Compound 13] | > 256 |
| COC(=O)[C@]12CCC(C)(C)C[C@H]1C1=CCC3[C@@]4(C)CC[C@H](OC(=O)CCc5cn(CSc6ccccc6)nn5)C(C)(C)C4CC[C@@]3(C)[C@]1(C)CC2 (stereo partly shown) [Compound 30] | > 256 |
| CC(C)c1ccc2c(c1)CCC1[C@](C)(COC(=O)CCCCc3cn(CSc4ccccc4)nn3)CCC[C@]21C (stereo partly shown) [Compound 10] | > 256 |
| CC1(C)CC[C@]2(C(=O)O)CC[C@]3(C)C(=CCC4[C@@]5(C)CC[C@H](OC(=O)CCc6cn(-c7ccccc7)nn6)C(C)(C)C5CC[C@]43C)[C@@H]2C1 (stereo partly shown) [Compound 21] | > 256 |
| CC(C)c1ccc2c(c1)CCC1[C@](C)(C(=O)OCc3cn(CSc4ccccc4)nn3)CCC[C@]21C (stereo partly shown) [Compound 3] | > 256 |
| COC(=O)[C@]12CCC(C)(C)C[C@H]1C1=CCC3[C@@]4(C)CC[C@H](OC(=O)CCc5cn(Cc6ccc(Cl)cc6)nn5)C(C)(C)C4CC[C@@]3(C)[C@]1(C)CC2 (stereo partly shown) [Compound 26] | > 256 |

Same assay, conditions: Leishmania infantum; promastigotes, 48 h; read-out: Leishmanicidal Activity on Promastigotes, L. infantum, IC50

| Compound | IC50 [µg/mL] |
| --- | --- |
| Cc1ccc(S(=O)(=O)n2cc(CCC(=O)O[C@H]3CC[C@@]4(C)C(CC[C@]5(C)C4CC=C4[C@@H]6CC(C)(C)CC[C@]6(C(=O)O)CC[C@]45C)C3(C)C)nn2)cc1 (stereo partly shown) [Compound 27] | > 256 |
| Cc1ccc(S(=O)(=O)n2cc(CCC(=O)OC[C@]3(C)CCC[C@]4(C)c5ccc(C(C)C)cc5CCC34)nn2)cc1 (stereo partly shown) [Compound 15] | 53 (≈ 94 µM) |

Tested on: T. cruzi epimastigotes
Assay: Antiepimastigote activity, T. cruzi CL-B5 lacZ (CPRG)
Assay type: cell-based, Trypanosoma cruzi
Conditions: Trypanosoma cruzi, clone CL-B5, 72 h
Protocol: For in vitro studies of T. cruzi, the clone CL-B5 was used (donated by Faculty of Pharmacy, Complutense University, Madrid, Spain). Parasites were stably transfected with the Escherichia coli β-galactosidase gene (lacZ). Epimastigotes were grown at 28 °C in liver infusion tryptose broth (Difco, Detroit, MI, USA) with 10% fetal bovine serum (FBS) (Gibco, Carlsbad, CA, USA), penicillin (Ern S.A., Barcelona, Spain), and streptomycin (Reig Jofré S.A., Barcelona, Spain), as described previously, and harvested during the exponential growth phase. Briefly, the screening assay was performed in 96-well microplates (Sarstedt, Inc., Newton, NC, USA) with cultures that had not reached the stationary phase. Epimastigotes were seeded at 2 × 10^5 parasites/mL in 200 µL growth media. The plates were then incubated with the respective compounds at 28 °C for 72 h; afterwards, 50 µL of chlorophenol red-β-D-galactopyranoside (CPRG) solution was added, resulting in a final concentration of 200 µM. The plates were incubated at 37 °C for an additional 4 h and then read at 595 nm. Each concentration was tested in triplicate. The efficacy of each compound was estimated by calculating the IC50 values. These values were calculated by the sigmoidal dose–response curve adjustment using the statistical software program Graph-Pad Prims 3.0 (GraphPhad, San Diego, CA, USA). Benznidazole was used as the reference drug.

| Compound | IC50 [µg/mL] |
| --- | --- |
| CC(C)c1ccc2c(c1)CCC1[C@](C)(COC(=O)CCCCc3cn(-c4ccccc4)nn3)CCC[C@]21C (stereo partly shown) [Compound 6] | > 256 |
| CC(C)c1ccc2c(c1)CCC1[C@](C)(COC(=O)CCc3cn(Cc4cccc(Cl)c4)nn3)CCC[C@]21C (stereo partly shown) [Compound 13] | > 256 |
| COC(=O)[C@]12CCC(C)(C)C[C@H]1C1=CCC3[C@@]4(C)CC[C@H](OC(=O)CCc5cn(CSc6ccccc6)nn5)C(C)(C)C4CC[C@@]3(C)[C@]1(C)CC2 (stereo partly shown) [Compound 30] | > 256 |
| CC(C)c1ccc2c(c1)CCC1[C@](C)(COC(=O)CCCCc3cn(CSc4ccccc4)nn3)CCC[C@]21C (stereo partly shown) [Compound 10] | > 256 |
| Cc1ccc(S(=O)(=O)n2cc(CCC(=O)O[C@H]3CC[C@@]4(C)C(CC[C@]5(C)C4CC=C4[C@@H]6CC(C)(C)CC[C@]6(C(=O)O)CC[C@]45C)C3(C)C)nn2)cc1 (stereo partly shown) [Compound 27] | 43 (≈ 58.6 µM) |
| CC1(C)CC[C@]2(C(=O)O)CC[C@]3(C)C(=CCC4[C@@]5(C)CC[C@H](OC(=O)CCc6cn(-c7ccccc7)nn6)C(C)(C)C5CC[C@]43C)[C@@H]2C1 (stereo partly shown) [Compound 21] | > 256 |
| CC(C)c1ccc2c(c1)CCC1[C@](C)(C(=O)OCc3cn(CSc4ccccc4)nn3)CCC[C@]21C (stereo partly shown) [Compound 3] | > 256 |
| Cc1ccc(S(=O)(=O)n2cc(CCC(=O)OC[C@]3(C)CCC[C@]4(C)c5ccc(C(C)C)cc5CCC34)nn2)cc1 (stereo partly shown) [Compound 15] | 69 (≈ 122 µM) |
| COC(=O)[C@]12CCC(C)(C)C[C@H]1C1=CCC3[C@@]4(C)CC[C@H](OC(=O)CCc5cn(Cc6ccc(Cl)cc6)nn5)C(C)(C)C4CC[C@@]3(C)[C@]1(C)CC2 (stereo partly shown) [Compound 26] | > 256 |

Tested on: not listed separately
Assay: Cytotoxicity on NCTC-Clone 929 fibroblasts (resazurin)
Assay type: cell-based
Conditions: mouse
Protocol: The cell line used was NCTC-Clone 929, which was grown in Minimal Essential Medium (Sigma) supplemented with 10% heat-inactivated FBS, penicillin G (100 U/mL), and streptomycin (100 µg/mL). Cell cultures were maintained at 37 °C in a humidified 5% CO2 atmosphere. The procedure for cell viability measurement was evaluated with resazurin by a colorimetric method. The cells were plated in 96-microtiter plates at 3 × 10^4 cells per well in a 100 µL growth medium. The cells were grown overnight at 37 °C, 5% CO2. Thereafter, the medium was removed and the compounds were added in a 200 µL medium for 24 h. After incubation, 20 µL of a 2 mM resazurin solution was added to each well. The plates were incubated for 3 h to allow optimal oxidation-reduction. The reduction of resazurin was determined by dual wavelength absorbance measurement at 490 and 595 nm. Background was subtracted. Each concentration was assayed three times. Medium and drug controls were used in each test as blanks.

| Compound | IC50 at 24 h [µg/mL] |
| --- | --- |
| CC(C)c1ccc2c(c1)CCC1[C@](C)(COC(=O)CCCCc3cn(-c4ccccc4)nn3)CCC[C@]21C (stereo partly shown) [Compound 6] | > 256 |
| CC(C)c1ccc2c(c1)CCC1[C@](C)(COC(=O)CCc3cn(Cc4cccc(Cl)c4)nn3)CCC[C@]21C (stereo partly shown) [Compound 13] | > 256 |
| COC(=O)[C@]12CCC(C)(C)C[C@H]1C1=CCC3[C@@]4(C)CC[C@H](OC(=O)CCc5cn(CSc6ccccc6)nn5)C(C)(C)C4CC[C@@]3(C)[C@]1(C)CC2 (stereo partly shown) [Compound 30] | > 256 |
| CC(C)c1ccc2c(c1)CCC1[C@](C)(COC(=O)CCCCc3cn(CSc4ccccc4)nn3)CCC[C@]21C (stereo partly shown) [Compound 10] | > 256 |
| Cc1ccc(S(=O)(=O)n2cc(CCC(=O)O[C@H]3CC[C@@]4(C)C(CC[C@]5(C)C4CC=C4[C@@H]6CC(C)(C)CC[C@]6(C(=O)O)CC[C@]45C)C3(C)C)nn2)cc1 (stereo partly shown) [Compound 27] | > 256 |
| CC1(C)CC[C@]2(C(=O)O)CC[C@]3(C)C(=CCC4[C@@]5(C)CC[C@H](OC(=O)CCc6cn(-c7ccccc7)nn6)C(C)(C)C5CC[C@]43C)[C@@H]2C1 (stereo partly shown) [Compound 21] | > 256 |
| CC(C)c1ccc2c(c1)CCC1[C@](C)(C(=O)OCc3cn(CSc4ccccc4)nn3)CCC[C@]21C (stereo partly shown) [Compound 3] | > 256 |
| Cc1ccc(S(=O)(=O)n2cc(CCC(=O)OC[C@]3(C)CCC[C@]4(C)c5ccc(C(C)C)cc5CCC34)nn2)cc1 (stereo partly shown) [Compound 15] | 232 (≈ 412 µM) |
| COC(=O)[C@]12CCC(C)(C)C[C@H]1C1=CCC3[C@@]4(C)CC[C@H](OC(=O)CCc5cn(Cc6ccc(Cl)cc6)nn5)C(C)(C)C4CC[C@@]3(C)[C@]1(C)CC2 (stereo partly shown) [Compound 26] | > 256 |

Tested on: L. donovani promastigotes
Assay: not given
Design: method as in PMID 19067375
Conditions: cited from earlier work

| Compound | IC50 against L. donovani promastigotes [µg/mL] | IC90 against L. donovani promastigotes [µg/mL] |
| --- | --- | --- |
| CC(C)c1cc2c(cc1O)[C@@]1(C)CCCC(C)(C)[C@@H]1CC2 [ferruginol] | 3.5 (≈ 12.2 µM) | 7.0 (≈ 24.4 µM) |
| CC(C)c1c(O)ccc2c1CC[C@H]1C(C)(C)CCC[C@]21C [totarol] | 3.5 (≈ 12.2 µM) | 6.9 (≈ 24.1 µM) |

Tested on: axenically grown L. donovani amastigotes
Assay: not given
Conditions: literature value, no reference given; read-out: IC50 against axenically grown L. donovani amastigotes; cited from earlier work

| Compound | IC50 [nM] |
| --- | --- |
| COc1c(C(C)C)cc2c(c1O)[C@@]1(C(=O)O)CCCC(C)(C)[C@@H]1CC2 [12-methoxycarnosic acid] | 750 |

Tested on: L. amazonensis promastigote
Assay: not given
Design: method as in PMID 15070160
Conditions: cited from earlier work

| Compound | IC50 against promastigote stage of L. amazonensis [µg/mL] |
| --- | --- |
| C[C@H]1[C@H](C)CC[C@]2(C(=O)O)CC[C@]3(C)C(=CC[C@@H]4[C@@]5(C)CC[C@H](O)C(C)(C)[C@@H]5CC[C@]43C)[C@H]12 [Ursolic acid] | 5 |

Tested on: L. amazonensis amastigote
Assay: not given
Design: method as in PMID 15070160
Conditions: cited from earlier work

| Compound | IC50 against amastigote stage of L. amazonensis [µg/mL] |
| --- | --- |
| C[C@H]1[C@H](C)CC[C@]2(C(=O)O)CC[C@]3(C)C(=CC[C@@H]4[C@@]5(C)CC[C@H](O)C(C)(C)[C@@H]5CC[C@]43C)[C@H]12 [Ursolic acid] | 27 |
